{"source": "patent US12128040B2", "about": "“Selective estrogen receptor degraders” (Eli Lilly and Company, priority 2018, dated 2024)", "system": "MCF7 ESR1 wild type", "test": "Cell proliferation assay in MCF7", "assay_type": "cell-based", "conditions": "Homo sapiens, seven days, n=2, read-out: Relative IC50 (nM), cell proliferation", "source_text": "The purpose of the following cell proliferation assays generally is to detect whether a test compound has effects on cell proliferation, cell viability, and cytotoxicity in response to treatment in cell culture experiments. Cell proliferation is monitored by monitoring the number of cells over time and the […] assay used allows continuous measurement of cell viability over time.\nSeed MCF7 (purchased from ATCC HTB-22) cells at a density of 2,000 cells per well in DMEM phenol red free media 10% FBS (20 μL volume) (charcoal stripped) into a clear bottom 384-well cell culture plate. […] Scan the plates with ACUMEN EXPLORER™ [Laser-scanning fluorescence microplate cytometer manufactured by TTP LABTECH LTD]. The MCF-7 cell line grows forming aggregates, cell number as number of objects may not be able to be used as readout; so the cell number may be evaluated through estimated number of cells (calculated through the area parameter (ratio of total area of the total cells population (a designated range of peak intensity of FL-1 (PI) and the mean area of the single cells population (defined by perimeter)). Determine the IC50 by curve fitting to a four parameter logistic for each output using GENE DATA™."}
{"smiles": "O=C(c1ccc(OCCN2CC(CF)C2)cc1)c1c(-c2ccc(C(F)(F)F)cc2F)cnc2cc(O)ccc12", "note": "[Example 1, (4-{2-[3-(Fluoromethyl)azetidin-1-yl]ethoxy}phenyl){3-[2-fluoro-4-(trifluoromethyl)phenyl]-7-hydroxyquinolin-4-yl}methanone]", "values": [{"measurement": "IC50", "result": "9.24 ± 1.74", "unit": "nM"}]}
